Test results from patent publication US20160200734A1, “CARBOXYLIC ACID COMPOUNDS IN TREATMENT OF DIABETES MELLITUS” (FUJIAN HAIXI PHARMACEUTICALS CO., LTD., priority 2013, published 2016).

Target: T1, GPR40 (Homo sapiens, UniProt O14842)
T1 construct: expressed in transfected cells
Experiment: GPR40 Activation Assay (Wash Free Fluo-8 Calcium Assay)
Assay type: cell-based
Settings: HEK293 cells stably expressing GPR40; fluorescence intensity Ex=494 nm, Em=516 nm
Method: This test procedure substantially carried out in accordance with the HDB company's Wash Free Fluo-8 Calcium Assay Kits. HEK293 cells stably expressing GPR40 were selected in a media containing Neomycin/G418. The cells were plated at a concentration of 30 uL 15,000 cells per well in black 384-well clear bottom tissue culture treated plates. The cells were incubated for 24 h in a incubator with 5% CO2.
According to Wash Free Fluo-8 Calcium Assay Kits operating instruction, one component A was dissolved in 210 uL DMSO, one component B was dissolved in 2.4 mL component C. After a 200 mM probenecid solution was prepared, 40 μL component A, 400 μL component B, 200 μL 200 mM probenecid and […] component C were mixed to a 20 mL test solution.
After removal of medium from the black 384-well dear bottom tissue culture treated plates by centrifuge, the test solution was added at 30 uL/well and the plates were incubated for 60 mins at 37° C. All test compounds were diluted to appropriate concentrations in HBSS buffer. Compounds were added to the cells and the wells were read fluorescence intensity at Ex=494 nm, Em=516 nm and readings were taken for 2 mins with an interval of 1 s. The compounds dose-dependent curve and EC50 were obtained by the Graphpad Prism4 software.

T1 sequence (O14842 whole entry, species assumed): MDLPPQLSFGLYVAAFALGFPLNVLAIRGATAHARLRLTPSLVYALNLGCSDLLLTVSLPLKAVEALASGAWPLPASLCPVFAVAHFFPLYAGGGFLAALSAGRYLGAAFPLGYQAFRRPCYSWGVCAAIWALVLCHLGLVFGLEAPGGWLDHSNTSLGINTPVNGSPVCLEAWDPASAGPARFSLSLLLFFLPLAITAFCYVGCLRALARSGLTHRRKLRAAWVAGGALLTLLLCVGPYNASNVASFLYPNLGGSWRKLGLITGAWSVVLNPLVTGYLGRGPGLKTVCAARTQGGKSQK

Cc1cc(OCCCS(C)(=O)=O)cc(C)c1-c1cccc2c1CCC2Oc1ccc2c(c1)SC[C@H]2CC(=O)O (stereo partly drawn) [Example 51, 2-((3S)-6-((4-(2,6-dimethyl-4-(3-(methylsulfonyl)propoxy)phenyl)-2,3-dihydro-1H-inden-1-yl)oxy)-2,3-dihydrobenzo[b]thiophen-3-yl)acetic acid] and CSCCCOc1cc(C)c(-c2cccc3c2CCC3Oc2ccc3c(c2)SC[C@H]3CC(=O)O)c(C)c1 (stereo partly drawn) [Example 52, 2-((3S)-6-((4-(2,6-dimethyl-4-(3-(metylthio)porpoxy)phenyl)-2,3-dihydro-1H-inden-1-yl)oxy)-2,3-dihydrobenzo[b]thiophen-3-yl)acetic acid] are within 1.5-fold of each other in EC50: 878 nM for the first, 1260 nM for the second.

Work on COCCCOc1cc(C)c(-c2cccc3c2CCC3Oc2ccc3c(c2)SC[C@H]3CC(=O)O)c(C)c1 (stereo partly drawn) [Example 53, 2-((3S)-6-((4-(4-(3-methoxypropoxy)-2,6-dlmethylphenyl)-2,3-dihydro-1H-inden-1-yl)oxy)-2,3-dihydrobenzo[b]thiophen-3-yl)acetic acid] yielded an EC50 of 997 nM.
